According to publication PMC6522510 (Nature Communications, 2019):
Read-outs that look alike come from different tables or passages of the source.

Key:
CHRF288-11 [1] = assay: Secondary dose-response HTS, Cell Titer Glo; format: cell-based, human; details: secondary high-throughput screen, CHRF288-11; for EC50: read-out: average effective concentration, CHRF288-11
CMK = assay: Secondary dose-response HTS, Cell Titer Glo; format: cell-based, human; details: CMK; for EC50: read-out: average effective concentration, CMK
CMS = assay: Secondary dose-response HTS, Cell Titer Glo; format: cell-based, human; details: for EC50: read-out: average effective concentration, CMS
M07e = assay: Secondary dose-response HTS, Cell Titer Glo; format: cell-based, human; details: secondary high-throughput screen; for EC50: read-out: average effective concentration, M07e
ML2 = assay: Secondary dose-response HTS, Cell Titer Glo; format: cell-based, human; details: secondary high-throughput screen, ML-2; for EC50: read-out: average effective concentration, ML-2
U937 [2] = assay: Secondary dose-response HTS, Cell Titer Glo; format: cell-based, human; details: secondary high-throughput screen, U937; for EC50: read-out: average effective concentration, U937
MOLM-13 [3] = assay: cells; design: species or system AML cell lines (8); Secondary HTS, 10-point dose-response in triplicate, Cell Titer Glo viability, four-parameter fit EC50; details: Homo sapiens, MOLM-13, 72 h, read-out: MOLM-13
MV4-11 [4] = assay: cells; design: species or system AML cell lines (8); Secondary HTS, 10-point dose-response in triplicate, Cell Titer Glo viability, four-parameter fit EC50; details: Homo sapiens, MV4-11, 72 h, read-out: MV4-11
MOLM-13 [5] = assay: Secondary dose-response HTS, Cell Titer Glo; format: cell-based, human; details: secondary high-throughput screen, MOLM-13; for EC50: read-out: average effective concentration, MOLM-13
MV4-11 [6] = assay: Secondary dose-response HTS, Cell Titer Glo; format: cell-based, human; details: secondary high-throughput screen, MV4-11; for EC50: read-out: average effective concentration, MV4-11
U937 [7] = assay: cells; design: species or system AML cell lines (8); Secondary HTS, 10-point dose-response in triplicate, Cell Titer Glo viability, four-parameter fit EC50; details: Homo sapiens, U-937, 72 h, read-out: U937
CHRF288-11 [8] = assay: cells; design: species or system AML cell lines (8); Secondary HTS, 10-point dose-response in triplicate, Cell Titer Glo viability, four-parameter fit EC50; details: 72 h, read-out: CHRF288-11
[9] = Homo sapiens, secondary high-throughput screen
[10] = Homo sapiens, HTS, secondary high-throughput screen, CMS
[11] = secondary high-throughput screen
[12] = secondary high-throughput screen, CMS

| Compound | EC50 (U937 [2]; Homo sapiens, U-937) [nM] | EC50 (MOLM-13 [3]) [nM] | EC50 (MV4-11 [4]) [nM] | EC50 (CHRF288-11 [1]; Homo sapiens, HTS) [nM] | EC50 (M07e; Homo sapiens, M-07e, M07e) [nM] | EC50 (ML2; Homo sapiens) [nM] | EC50 (CMK; [9]) [nM] | EC50 (CMS; [10]) [nM] | average effective concentration, MV4-11 (MV4-11 [6]) | average effective concentration, CMK (CMK; [11]) | average effective concentration, U937 (U937 [2]) | other results |
| --- | --- | --- | --- | --- | --- | --- | --- | --- | --- | --- | --- | --- |
| CC(C)[C@H](C(=O)Nc1ccc(C(=O)NO)cc1)c1ccccc1 [(S)-HDAC-42] | 220 | > 10000 | > 10000 | 260 | 160 | 330 |  |  |  |  |  | EC50 (CMK; Homo sapiens): 38 nM; EC50 (CMS; Homo sapiens, HTS): 220 nM |
| CN(C)Cc1c(C(=O)NCCOc2ccc(C(=O)NO)cc2)oc2ccccc12 [ABEXINOSTAT] | 30 | > 10000 | > 10000 | 37 | 26 | 93 | 12 | 34 |  |  |  |  |
| Cc1ccc2nc(NCCN)c3ncc(C)n3c2c1 [BMS-345541] | 2300 | > 10000 | > 10000 | 3800 |  | 2200 | 4700 | 5900 |  |  |  | EC50 (M07e; Homo sapiens, M-07e, […]): 6100 nM |
| CC(C)C[C@H](NC(=O)[C@@H](NC(=O)c1cccc(-c2ccccc2)n1)[C@@H](C)O)B(O)O [DELANZOMIB] | 2.8 | 2.1 | > 10000 | 2.7 | 1 | 1 | 1.5 | 1 |  |  |  |  |
| Nc1ccccc1NC(=O)c1ccc(CNC(=O)OCc2cccnc2)cc1 [ENTINOSTAT] | 5600 | > 10000 | > 10000 | 4100 | 1000 | 6200 | 110 | 760 |  |  |  |  |
| O=c1[nH]c(=O)n([C@H]2C[C@H](O)[C@@H](CO)O2)cc1F [FLOXURIDINE] |  |  |  | 67 | 8200 | 21 | 980 | 7900 |  |  |  | EC50 (MOLM-13 [5]; Homo sapiens): 23 nM; EC50 (MV4-11 [6]; Homo sapiens): 130 nM; EC50 (U937 [7]): > 10000 nM |
| Oc1ccc(C2=Cc3ccc(O)cc3OC2)cc1 [IDRONOXIL] | 1900 | > 10000 | > 10000 | 180 |  | 130 | 88 | 440 |  |  |  | EC50 (M07e; Homo sapiens, M-07e, […]): 1300 nM |
| Nc1ccccc1NC(=O)c1ccc(CNc2nccc(-c3cccnc3)n2)cc1 [MOCETINOSTAT] | 1100 | > 10000 | > 10000 | 170 | 140 | 410 | 39 | 120 |  |  |  |  |
| C=C1C(=O)O[C@H]2[C@H]1CC/C(C)=C/CC[C@@]1(C)O[C@@H]21 [PARTHENOLIDE] | 2100 | > 10000 | > 10000 | 1600 | 10000 | 920 |  |  |  |  |  | EC50 (CMK; Homo sapiens): 2100 nM; EC50 (CMS; Homo sapiens, HTS): 1200 nM |
| CN1CCc2c(c3ccccc3n2Cc2ccc(C(=O)NO)cc2)C1 [[…]] |  |  |  |  |  |  |  |  | Inactive | Inactive | Inactive | EC50 (MOLM-13 [5]; Homo sapiens): > 10000 nM; average effective concentration, CHRF288-11 (CHRF288-11 [1]): Inactive; average effective concentration, CMS (CMS; [12]): Inactive; average effective concentration, M07e (M07e; […]): Inactive; average effective concentration, ML-2 (ML2): Inactive |
| (-)-NUTLIN-3 |  |  |  |  |  |  |  |  | Inactive | Inactive | Inactive | EC50 (MOLM-13 [5]): 940 nM; average effective concentration, CHRF288-11 (CHRF288-11 [1]): Inactive; average effective concentration, CMS (CMS; [12]): Inactive; EC50 (M07e; M07e): 160 nM; EC50 (ML2): 4900 nM |
| ANACARDIC ACID |  |  |  |  |  |  |  |  | Inactive | Inactive | Inactive | average effective concentration, MOLM-13 (MOLM-13 [5]): Inactive; average effective concentration, CHRF288-11 (CHRF288-11 [1]): Inactive; average effective concentration, CMS (CMS; [12]): Inactive; average effective concentration, M07e (M07e; M07e): Inactive; average effective concentration, ML-2 (ML2): Inactive |
| AZ-20 |  |  |  |  |  |  |  |  | Inactive | Inactive |  | average effective concentration, MOLM-13 (MOLM-13 [5]): Inactive; EC50 (CHRF288-11 [1]): 2500 nM; EC50 (CMS; [12]): 600 nM; EC50 (M07e; M07e): 200 nM; EC50 (ML2): 30 nM; EC50 (U937 [2]): 4700 nM |
| EB-47 |  |  |  |  |  |  |  |  | Inactive | Inactive | Inactive | average effective concentration, MOLM-13 (MOLM-13 [5]): Inactive; average effective concentration, CHRF288-11 (CHRF288-11 [1]): Inactive; average effective concentration, CMS (CMS; [12]): Inactive; average effective concentration, M07e (M07e; M07e): Inactive; average effective concentration, ML-2 (ML2): Inactive |
| IC-87114 |  |  |  |  |  |  |  |  | Inactive | Inactive | Inactive | average effective concentration, MOLM-13 (MOLM-13 [5]): Inactive; average effective concentration, CHRF288-11 (CHRF288-11 [1]): Inactive; average effective concentration, CMS (CMS; [12]): Inactive; average effective concentration, M07e (M07e; M07e): Inactive; average effective concentration, ML-2 (ML2): Inactive |
| LB 42708 |  |  |  |  |  |  |  |  |  | Inactive | Inactive | EC50 (MOLM-13 [5]): 2500 nM; EC50 (MV4-11 [6]): 5000 nM; average effective concentration, CHRF288-11 (CHRF288-11 [1]): Inactive; EC50 (CMS; [12]): 3400 nM; average effective concentration, M07e (M07e; M07e): Inactive; EC50 (ML2): 2300 nM |
| MST312 |  |  |  |  |  |  |  |  | Inactive | Inactive |  | EC50 (MOLM-13 [5]): 1500 nM; EC50 (CHRF288-11 [1]): 2000 nM; EC50 (CMS; [12]): 2900 nM; EC50 (M07e; M07e): 5200 nM; EC50 (ML2): 3700 nM; EC50 (U937 [2]): 2800 nM |
| PU-H71 |  |  |  |  |  |  |  |  |  |  | Inactive | EC50 (MOLM-13 [5]): 19 nM; EC50 (MV4-11 [6]): 23 nM; EC50 (CHRF288-11 [1]): 170 nM; EC50 (CMK; [11]): 24 nM; EC50 (CMS; [12]): 180 nM; average effective concentration, M07e (M07e; M07e): Inactive; EC50 (ML2): 82 nM |
| SCR7 |  |  |  |  |  |  |  |  | Inactive | Inactive | Inactive | average effective concentration, MOLM-13 (MOLM-13 [5]): Inactive; average effective concentration, CHRF288-11 (CHRF288-11 [1]): Inactive; average effective concentration, CMS (CMS; [12]): Inactive; average effective concentration, M07e (M07e; M07e): Inactive; average effective concentration, ML-2 (ML2): Inactive |
| SN-38 |  |  |  |  |  |  |  |  |  |  |  | EC50 (MOLM-13 [5]): 5.6 nM; EC50 (MV4-11 [6]): 240 nM; EC50 (CHRF288-11 [1]): 9.49 nM; EC50 (CMK; [11]): 23 nM; average effective concentration, CMS (CMS; [12]): Inactive; EC50 (M07e; M07e): 44 nM; EC50 (ML2): 2.51 nM; EC50 (U937 [2]): 37 nM |

Further lines, with some results ahead:

| EC50 (U937 [2]; Homo sapiens, U-937) [nM] | EC50 (MOLM-13 [3]) [nM] | EC50 (MV4-11 [4]) [nM] | Compound | EC50 (CHRF288-11 [1]; Homo sapiens, HTS) [nM] | EC50 (M07e; Homo sapiens, M-07e, M07e) [nM] | EC50 (ML2; Homo sapiens) [nM] | EC50 (CMK; [9]) [nM] | EC50 (CMS; [10]) [nM] | average effective concentration, MV4-11 (MV4-11 [6]) | average effective concentration, CMK (CMK; [11]) | average effective concentration, U937 (U937 [2]) | other results |
| --- | --- | --- | --- | --- | --- | --- | --- | --- | --- | --- | --- | --- |
| 1000 | > 10000 | > 10000 | COC(=O)[C@]12CCC(C)(C)C[C@H]1[C@H]1C(=O)C=C3[C@@]4(C)C=C(C#N)C(=O)C(C)(C)[C@@H]4CC[C@@]3(C)[C@]1(C)CC2 [BARDOXOLONE METHYL] | 940 | 4000 | 880 | 1100 | 1100 |  |  |  |  |
| 55 | > 10000 | > 10000 | CCN(CC)Cc1ccc2cc(COC(=O)Nc3ccc(C(=O)NO)cc3)ccc2c1 [GIVINOSTAT] | 61 | 31 | 70 | 3.7 | 86 |  |  |  |  |
| 1 | > 10000 | > 10000 | NS(=O)(=O)OC[C@@H]1C[C@@H](n2ccc3c(N[C@H]4CCc5ccccc54)ncnc32)C[C@@H]1O [MLN 4924] | 18 | 140 | 1 |  |  |  |  |  | EC50 (CMK; Homo sapiens): 1 nM; EC50 (CMS; Homo sapiens, HTS): 100 nM |
| 220 | > 10000 | > 10000 | CCCCc1nc2cc(/C=C/C(=O)NO)ccc2n1CCN(CC)CC [PRACINOSTAT] | 250 | 130 | 330 |  |  |  |  |  | EC50 (CMK; Homo sapiens): 70 nM; EC50 (CMS; Homo sapiens, HTS): 140 nM |
| 3900 |  |  | CCN(CC)CCCC(C)Nc1c2ccc(Cl)cc2nc2ccc(OC)cc12 (centres unmarked) [QUINACRINE] |  | 7700 | > 10000 | 7700 | 5500 |  |  |  | EC50 (MOLM-13 [5]; Homo sapiens): 2900 nM; EC50 (MV4-11 [6]; Homo sapiens): 3800 nM; EC50 (CHRF288-11 [8]): > 10000 nM |
